# Reference: patent US20050107386A1, “Methods of treating diseases and disorders by targeting multiple kinases” (priority 2003, published 2005)
# Key:
# Type in all cases: biochemical
# Settings in all cases: 3 μM; percent of control kinase activity
# PKCε(h) = biological target: T1, PKCε(h) (Homo sapiens, UniProt Q02156); test: PKCε(h) kinase assay
# T1 sequence (Q02156 1-737): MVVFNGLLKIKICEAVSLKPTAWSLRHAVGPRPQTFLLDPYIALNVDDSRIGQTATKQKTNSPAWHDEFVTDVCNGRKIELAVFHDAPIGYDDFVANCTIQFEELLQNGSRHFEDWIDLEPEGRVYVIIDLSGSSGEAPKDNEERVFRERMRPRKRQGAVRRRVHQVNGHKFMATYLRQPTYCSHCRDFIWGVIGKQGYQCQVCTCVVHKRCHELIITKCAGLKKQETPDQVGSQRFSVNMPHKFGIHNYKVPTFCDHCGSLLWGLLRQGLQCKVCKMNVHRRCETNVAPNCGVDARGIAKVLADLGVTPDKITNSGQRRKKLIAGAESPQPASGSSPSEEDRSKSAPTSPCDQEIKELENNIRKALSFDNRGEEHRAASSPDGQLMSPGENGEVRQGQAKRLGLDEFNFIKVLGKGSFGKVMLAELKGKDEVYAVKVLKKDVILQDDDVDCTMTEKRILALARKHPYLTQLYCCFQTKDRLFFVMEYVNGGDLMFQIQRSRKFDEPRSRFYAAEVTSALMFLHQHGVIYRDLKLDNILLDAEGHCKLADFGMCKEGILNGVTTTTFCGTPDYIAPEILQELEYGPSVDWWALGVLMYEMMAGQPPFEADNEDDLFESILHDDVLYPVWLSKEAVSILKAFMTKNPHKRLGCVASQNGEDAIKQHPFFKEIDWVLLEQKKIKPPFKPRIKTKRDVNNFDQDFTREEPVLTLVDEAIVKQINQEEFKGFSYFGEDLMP
# Method: (§1) Six compounds (presumptive single agents) were tested against a panel of 50 kinases. The results are presented in Table 2; numbers for each kinase indicate the percent of control kinase activity in the presence of a 3μM concentration of the indicated agent.
# (§2) Agents that target two or more different kinases are useful in the methods of the invention as described elsewhere herein. Such compounds may be identified, and their effect on certain kinases may be identified, using the assays briefly described below in Examples 4-83. Each of these assays was carried out as described in Davies et al., Biochem. J., 351:95-105 (2000). All assays were carried out at 10 μM ATP unless otherwise noted.
# (§3) In a final reaction volume of 25 μl, PKCε(h) (5-10 mU) is incubated with 20 mM Hepes pH 7.4, 0.03% Triton X-100, 0.1 mg/ml phosphatidylserine, 10 μg/ml diacylglycerol, 50 μM […] (SEQ ID NO: 18), 10 mM MgAcetate and [γ-^33P-ATP] (Specific activity approx. 500 cpm/pmol, concentration as required). The reaction is initiated by the addition of Mg^2+ [γ-^33P-ATP]. After incubation for 40 minutes at room temperature, the reaction is stopped by the addition of 5 μl of a 3% phosphoric acid solution. 10 μl of the reaction is then spotted onto a P30 filtermat and washed three times for 5 minutes in 75 mM phosphoric acid and once in methanol prior to drying and scintillation counting.
# Fyn(h) = Fyn(h) (Homo sapiens, UniProt P06241); test: Fyn(h) kinase assay
# Method: as §1, §2
# In a final reaction volume of 25 μl, Fyn (h) (5-10 mU) is incubated with 50 mM Tris pH 7.5, 0.1 mM EGTA, 0.1 mM NaVanadate, 250 μM […] (Cdc2 peptide; SEQ ID NO:7), 10 mM MgAcetate and [γ-^33P-ATP] (specific activity approx. 500 cpm/pmol, concentration as required). The reaction is initiated by the addition of Mg^2+ [γ-^33P-ATP]. After incubation for 40 minutes at room temperature, the reaction is stopped by the addition of 5 μl of a 3% phosphoric acid solution. 10 μl of the reaction is then spotted onto a P30 filtermat and washed three times for 5 minutes in 75 mM phosphoric acid and once in methanol prior to drying and scintillation counting.
# MAPK2(h) = MAPK2(h) (Homo sapiens, UniProt P28482); test: MAPK2(h) kinase assay
# Method: as §1, §2
# In a final reaction volume of 25 μl, MAPK2(h) (5-10 mU) is incubated with 25 mM Tris pH 7.5, 0.02 mM EGTA, 0.33 mg/ml myelin basic protein, 10 mM MgAcetate and [γ-^33P-ATP] (specific activity approx. 500 cpm/pmol, concentration as required). The reaction is initiated by the addition of Mg^2+ [γ-^33P-ATP]. After incubation for 40 minutes at room temperature, the reaction is stopped by the addition of 5 μl of a 3% phosphoric acid solution. 10 μl of the reaction is then spotted onto a P30 filtermat and washed three times for 5 minutes in 75 mM phosphoric acid and once in methanol prior to drying and scintillation counting.
# CaMKIV(h) = CaMKIV(h) (Homo sapiens, UniProt Q16566); test: CaMKIV(h) kinase assay
# Method: as §1, §2
# as §3, with “CaMKIV (h)” for “PKCε(h)”, “40” for “20”, “5 mM CaCl2, 30” for “0.03% Triton X-100, 0.1 mg/ml phosphatidylserine, 10”, “calmodulin, 30” for “diacylglycerol, 50”, “NO:11),” for “NO: 18),”, “(specific” for “(Specific”
# MAPK2(h), sequence (P28482 whole entry): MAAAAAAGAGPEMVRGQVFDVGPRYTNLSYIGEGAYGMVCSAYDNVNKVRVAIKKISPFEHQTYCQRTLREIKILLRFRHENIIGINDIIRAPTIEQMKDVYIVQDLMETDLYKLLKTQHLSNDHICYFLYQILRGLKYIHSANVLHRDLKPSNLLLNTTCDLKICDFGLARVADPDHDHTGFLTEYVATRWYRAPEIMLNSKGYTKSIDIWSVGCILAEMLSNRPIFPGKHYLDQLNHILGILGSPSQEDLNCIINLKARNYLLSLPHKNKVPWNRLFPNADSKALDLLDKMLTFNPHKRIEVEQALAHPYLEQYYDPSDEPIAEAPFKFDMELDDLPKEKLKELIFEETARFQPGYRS
# Fyn(h), sequence (P06241 whole entry): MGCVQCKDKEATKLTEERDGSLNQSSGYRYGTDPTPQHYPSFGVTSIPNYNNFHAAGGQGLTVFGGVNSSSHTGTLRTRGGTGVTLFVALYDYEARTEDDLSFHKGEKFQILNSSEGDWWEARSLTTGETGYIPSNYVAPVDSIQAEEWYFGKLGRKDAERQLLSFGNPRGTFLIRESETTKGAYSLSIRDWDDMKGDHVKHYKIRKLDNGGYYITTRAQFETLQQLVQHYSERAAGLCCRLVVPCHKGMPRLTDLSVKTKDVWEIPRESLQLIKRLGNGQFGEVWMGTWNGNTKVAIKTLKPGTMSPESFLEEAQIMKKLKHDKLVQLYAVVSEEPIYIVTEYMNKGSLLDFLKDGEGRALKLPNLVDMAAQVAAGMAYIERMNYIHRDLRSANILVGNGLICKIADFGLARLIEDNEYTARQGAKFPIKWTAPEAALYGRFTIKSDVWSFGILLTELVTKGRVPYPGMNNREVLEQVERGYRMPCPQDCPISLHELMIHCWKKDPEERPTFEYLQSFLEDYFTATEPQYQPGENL
"Inhibitory activity (% of control), PKCε(h) (PKCε(h))","Inhibitory activity (% of control), Fyn(h) (Fyn(h))","Inhibitory activity (% of control), MAPK2(h) (MAPK2(h))","Inhibitory activity (% of control), CaMKIV(h) (CaMKIV(h))",Structure (SMILES)
58 % of control,4 % of control,2 % of control,60 % of control,"CC(C)Cc1nc(-c2ccc3[nH]nc(-c4ccc5cc(OCCN6CCCC6)ccc5c4)c3c2)n[nH]1 [CC002, 5-(5-Isobutyl-1H-[1,2,4]Triazol-3-yl)-3-[6-(2-Pyrrolidin-1-yl-Ethoxy)-Naphthalen-2-yl]-1H-Indazole]"
82 % of control,65 % of control,3 % of control,95 % of control,"Fc1ccc(-c2n[nH]c3ccc(-c4n[nH]c(C5CCCC5)n4)cc23)cc1 [CC006, 5-(5-Cyclopentyl-1H-[1,2,4]triazol-3-yl)-3-(4-fluoro-phenyl)-1H-indazole, reference compound]"
84 % of control,4 % of control,2 % of control,22 % of control,"CCN1CCC[C@H]1COc1ccc2cc(-c3n[nH]c4ccc(-c5nc(CC(C)(C)C)n[nH]5)cc34)ccc2c1 [CC005, 2-[((2s)-1-ethylpyrrolidin-2-yl)methoxy]-6-{5-[3-(2,2-Dimethylpropyl)(1H-1,2,4,-triazol-5-yl)](1H-indazol-3-yl)}naphthalene]"
105 % of control,67 % of control,1 % of control,80 % of control,"CC(C)(C)Cc1nc(-c2ccc3[nH]nc(-c4ccc5cc(OCc6ccccn6)ccc5c4)c3c2)n[nH]1 [CC004, 5-[5-(2,2-Dimethyl-propyl)-1H-[1,2,4]triazol-3-yl]-3-[6-(pyridine-2-ylmethoxy)-naphthalen-2-yl]-1H-indazole]"
79 % of control,66 % of control,3 % of control,86 % of control,"O=C(NC1CCCC1)c1cccc(-c2n[nH]c3ccc(-c4nc[nH]n4)cc23)c1 [CC007, 3-(5-(1H-1,2,4-triazol-3-yl)(1H-indazol-3-yl))phenyl-N-cyclopentylcarboxamide, reference compound]"

Structure (SMILES),"Inhibitory activity (% of control), PKCε(h) (PKCε(h))","Inhibitory activity (% of control), Fyn(h) (Fyn(h))","Inhibitory activity (% of control), MAPK2(h) (MAPK2(h))","Inhibitory activity (% of control), CaMKIV(h) (CaMKIV(h))"
"COc1ccc2cc(-c3n[nH]c4ccc(-c5n[nH]c(CN6CCOCC6)n5)cc34)ccc2c1 [CC001, 3-(6-Methoxynaphthalen-2-yl)-5-(5-Morpholin-4-Ylmethyl-1H-[1,2,4]Triazol-3-yl)-1H-Indazole]",82 % of control,14 % of control,0 % of control,82 % of control
